For series [1], the system named is BE(2)-C. The series can be described thus: Antiproliferative activity against human BE2C cells assessed as reduction in cell growth incubated for 96 hrs by MTT assay. The format is functional, cell-based.
Series [2] relates to BE(2)-C. Nature of the series: Antiproliferative activity against human BE2C cells assessed as residual cell viability at 25 uM incubated for 96 hrs by MTT assay relative to control. The format is functional. Background: Tetrazolium assays rely on reduction of a dye to a coloured formazan, in cell work by metabolically active cells.
Series [3] can be described thus: Antiproliferative activity against human Kelly cells assessed as reduction in cell growth incubated for 96 hrs by MTT assay. Type of series: functional, cell-based.
The test system of series [4] is SW-620. Nature of the series: Antiproliferative activity against human SW620 cells assessed as reduction in cell growth incubated for 96 hrs by MTT assay. Type of series: functional, cell-based. Particulars: SW-620, 96 h.
The nature of series [5]: Antiproliferative activity against human fibroblasts assessed as reduction in cell growth incubated for 96 hrs by MTT assay. Type of series: toxicity, cell-based, Fibroblast.

The term IC50 denotes the concentration that inhibits the measured activity by half. Turning to `NC(=O)C(c1ccccc1)c1c(-c2ccccc2)[nH]c2ccc(Cl)cc12` (stereo not drawn), in series [1], the 50% inhibitory concentration (IC50) came out at 14 µM. Moreover, the Residual cell viability in series [2] amounted to 136%. In the case of `CCc1ccc(C(C2=NC(C)(C)CO2)c2c(-c3ccc(C)c(C)c3)[nH]c3ccccc23)cc1` (stereo not drawn), the Residual cell viability in series [2] was determined as 16.5%. Still for that read-out and setting: then `CC1(C)COC(C(c2ccccc2)c2c(-c3ccc4ccccc4c3)[nH]c3ccccc23)=N1` (stereo not drawn), with 128%.

For the compound `CC1(C)COC(C(c2ccccc2F)c2c(-c3ccc4c(c3)CCCC4)[nH]c3ccccc23)=N1` (stereo not drawn), the IC50 in series [1] was found to be 88 µM. Moreover, in series [2], the Residual cell viability amounted to 25.6%. For the compound `COc1ccc(C(C(N)=O)c2c(-c3ccccc3)[nH]c3ccccc23)cc1OC` (stereo not drawn), the Residual cell viability in series [2] is 16.1%. Same read-out and setting: then `COc1ccccc1C(C(N)=O)c1c(-c2ccccc2)[nH]c2ccccc12` (stereo not drawn), with 147%; and `NC(=O)C(c1ccccc1)c1c(-c2ccc3ccccc3c2)[nH]c2ccc(Cl)cc12` (stereo not drawn), with 144%. Take `COc1ccccc1C(C(N)=O)c1c(-c2ccc3ccccc3c2)[nH]c2ccccc12` (stereo not drawn): the IC50 worked out at 1.33 µM in series [3], 1.41 µM in series [4] and 0.28 µM in series [1]. Moreover, in series [5], the IC50 at 96 h worked out at 155 µM. In series [2], the Residual cell viability is on record as 42.4%.

For `CC1(C)COC(C(c2ccccc2Cl)c2c(-c3ccc4c(c3)CCCC4)[nH]c3ccccc23)=N1` (stereo not drawn), in series [1], the IC50 is 6.1 µM. The Residual cell viability in series [2] stood at 34.3%. With `COc1ccccc1C(C1=NC(C)(C)CO1)c1c(-c2ccc3c(c2)CCCC3)[nH]c2ccccc12` (stereo not drawn), the IC50 in series [1] is 20 µM. In series [2], the Residual cell viability was 42%. Take `NC(=O)C(c1ccccc1)c1c(-c2ccc3ccccc3c2)[nH]c2ccccc12` (stereo not drawn): in series [1], the 50% inhibitory concentration (IC50) was 8.46 µM. Also, the Residual cell viability in series [2] amounted to 19.2%. On to `NC(=O)C(c1ccc(Cl)cc1)c1c(-c2ccc3ccccc3c2)[nH]c2ccccc12` (stereo not drawn), for which, in series [1], the IC50 is 0.79 µM. Further, the Residual cell viability in series [2] stood at 13.9%. On to `NC(=O)C(c1cccc(Cl)c1)c1c(-c2ccccc2)[nH]c2ccccc12` (stereo not drawn), for which the Residual cell viability in series [2] stood at 14.1%. Same read-out and setting: for `NC(=O)C(c1ccccc1)c1c(-c2ccccc2)[nH]c2ccccc12` (stereo not drawn) the value was 185%; for `CCc1ccc(C(C2=NC(C)(C)CO2)c2c(-c3ccc4c(c3)CCCC4)[nH]c3ccccc23)cc1` (stereo not drawn), 33.3%; for `COc1ccc(C(C(N)=O)c2c(-c3ccccc3)[nH]c3ccccc23)cc1` (stereo not drawn), 129%. With `CC(C)c1ccc(C(C(N)=O)c2c(-c3ccccc3)[nH]c3ccccc23)cc1` (stereo not drawn), the concentration for half-maximal inhibition (IC50) in series [1] amounted to 24 µM. In addition, the Residual cell viability in series [2] is given as 88%. Regarding `COc1ccc(-c2[nH]c3ccccc3c2C(C(N)=O)c2ccccc2)cc1` (stereo not drawn), in series [2], the Residual cell viability was found to be 100%. Still for that read-out and setting: for `NC(=O)C(c1ccccc1Cl)c1c(-c2ccccc2)[nH]c2ccccc12` (stereo not drawn) the value was 13.9%. Consider `COc1ccc(C(C(N)=O)c2c(-c3ccc4ccccc4c3)[nH]c3ccccc23)cc1` (stereo not drawn), for which the IC50 in series [1] amounted to 0.47 µM. In series [2], the Residual cell viability was found to be 13.7%.

For `COc1ccc(C(C2=NC(C)(C)CO2)c2c(-c3ccc(C)cc3)[nH]c3ccccc23)cc1` (stereo not drawn), the half-maximal inhibitory concentration (IC50) in series [1] was 9.4 µM. Moreover, the Residual cell viability in series [2] worked out at 17.2%.

With `CCc1ccc(C(C2=NC(C)(C)CO2)c2c(-c3ccc(C)cc3)[nH]c3ccccc23)cc1` (stereo not drawn), the Residual cell viability in series [2] was 189%. Same read-out and setting: for `COc1ccc(C(C2=NC(C)(C)CO2)c2c(-c3ccc(C)c(C)c3)[nH]c3ccccc23)cc1` (stereo not drawn) the value was 135%; for `CC1(C)COC(C(c2ccccc2)c2c(-c3ccccc3)[nH]c3ccccc23)=N1` (stereo not drawn), 13.3%. With `COc1ccc(C(C(N)=O)c2c(-c3ccc4ccccc4c3)[nH]c3ccccc23)cc1OC` (stereo not drawn), the IC50 was 0.23 µM in series [3], 1.71 µM in series [4] and 0.25 µM in series [1]. Besides, in series [5], the half-inhibitory concentration (IC50) at 96 h is 192 µM. The Residual cell viability in series [2] is 49.2%. For `Cc1ccc(-c2[nH]c3ccccc3c2C(C(N)=O)c2ccccc2)cc1` (stereo not drawn), the Residual cell viability in series [2] worked out at 159%. On to `COc1ccc(-c2[nH]c3ccccc3c2C(C(N)=O)c2ccccc2OC)cc1` (stereo not drawn), for which the IC50 in series [1] is 7.34 µM. For the same compound, in series [2], the Residual cell viability came to 178%. Take `COc1ccc(-c2[nH]c3ccccc3c2C(C(N)=O)c2ccccc2OC)cc1OC` (stereo not drawn): the Residual cell viability in series [2] was found to be 169%. On the same count and under the same terms, then `Cc1ccc(C(C(N)=O)c2c(-c3ccccc3)[nH]c3ccccc23)cc1` (stereo not drawn), with 151%. For `CC1(C)COC(C(c2ccc(Cl)cc2)c2c(-c3ccc4c(c3)CCCC4)[nH]c3ccccc23)=N1` (stereo not drawn), in series [1], the IC50 is 18.8 µM. For the same compound, the Residual cell viability in series [2] is 145%.

Consider `NC(=O)C(c1ccc(Cl)cc1)c1c(-c2ccccc2)[nH]c2ccccc12` (stereo not drawn), for which, in series [1], the concentration for half-maximal inhibition (IC50) was determined as 0.99 µM. Also, the Residual cell viability in series [2] came out at 14.1%. Take `Cc1ccc(C(C(N)=O)c2c(-c3ccc4ccccc4c3)[nH]c3ccccc23)cc1` (stereo not drawn): the IC50 stood at 0.93 µM in series [3], 0.37 µM in series [4] and 0.29 µM in series [1]. The IC50 at 96 h in series [5] came out at 75.7 µM. Moreover, the Residual cell viability in series [2] was determined as 14.5%.

On to `Cc1ccc(-c2[nH]c3ccccc3c2C(C2=NC(C)(C)CO2)c2ccccc2)cc1` (stereo not drawn), for which, in series [2], the Residual cell viability is on record as 134%. Take `COc1ccc(-c2[nH]c3ccccc3c2C(C(N)=O)c2ccc(C)cc2)cc1` (stereo not drawn): the IC50 in series [1] is 4.65 µM. Further, the Residual cell viability in series [2] is 87%. In the case of `NC(=O)C(c1cccc(Cl)c1)c1c(-c2ccc3ccccc3c2)[nH]c2ccccc12` (stereo not drawn), in series [2], the Residual cell viability came out at 142%. For the compound `CC1=C(/C=C/C(C)=C/C=C/C(C)=C/C(=O)O)C(C)(C)CCC1` [TRETINOIN], the IC50 in series [1] was determined as 6.7 µM. Take `NC(=O)C(c1ccccc1Cl)c1c(-c2ccc3ccccc3c2)[nH]c2ccccc12` (stereo not drawn): in series [1], the IC50 came to 0.96 µM. The Residual cell viability in series [2] is reported as 132%.

Source of the values: ChEMBL document CHEMBL5579813, “2-(3-Indolyl)acetamides and their oxazoline analogues: Anticancer SAR study” (Bioorg Med Chem Lett, 2024).
